Data as given in the supplement of paper PMC10307832.

Legend:
Assay in all cases: relative viability (nuclei count vs DMSO), 5 days (fraction); higher = more cells survive
BI-2536 + Luminespib = compound: CC[C@@H]1C(=O)N(C)c2cnc(Nc3ccc(C(=O)NC4CCN(C)CC4)cc3OC)nc2N1C1CCCC1 [BI-2536] + CCNC(=O)c1noc(-c2cc(C(C)C)c(O)cc2O)c1-c1ccc(CN2CCOCC2)cc1 [Luminespib] (partner 0.01 µM)
In short: (§1)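 Relative viability is defined as nuclei in treated wells over nuclei in vehicle wells. Duplicate plates were run and medians reported. Lung cancer cell lines in 1536-well plates were dosed by pin tool one day after seeding, with one drug or with a fixed anchor-drug dose plus five library-drug doses (not always all listed) in √10 steps, and nuclei were counted after 5 days.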

[1] = compound: CC1CC(=O)N(C2=CN=C(N=C2N1C3CCCC3)NC4=C(C=C(C=C4)C(=O)NC5CCN(CC5)C)OC)C [NPK76-II-72-1] + CC(C)C[C@H](NC(=O)[C@H](Cc1ccccc1)NC(=O)c1cnccn1)B(O)O [Bortezomib] (partner 0.002 µM)
In short: as §1

BI-2536 + Dasatinib = compound: CC[C@@H]1C(=O)N(C)c2cnc(Nc3ccc(C(=O)NC4CCN(C)CC4)cc3OC)nc2N1C1CCCC1 [BI-2536] + Cc1nc(Nc2ncc(C(=O)Nc3c(C)cccc3Cl)s2)cc(N2CCN(CCO)CC2)n1 [Dasatinib] (partner 0.075 µM)
In short: as §1

[2] = compound: CC1CC(=O)N(C2=CN=C(N=C2N1C3CCCC3)NC4=C(C=C(C=C4)C(=O)NC5CCN(CC5)C)OC)C [NPK76-II-72-1] + Nc1ncn([C@H]2C[C@H](O)[C@@H](CO)O2)c(=O)n1 [Decitabine] (partner 2 µM)
In short: as §1

Cell Line	relative viability (BI-2536 + Luminespib; first compound 0.01 µM)	relative viability (BI-2536 + Luminespib; first compound 0.03162 µM)	relative viability (BI-2536 + Luminespib; first compound 0.1 µM)	relative viability (BI-2536 + Luminespib; first compound 0.3162 µM)	relative viability (BI-2536 + Luminespib; first compound 1 µM)	relative viability ([1]; first compound 0.01 µM)	relative viability ([1]; first compound 0.03162 µM)	relative viability ([1]; first compound 0.1 µM)	relative viability ([1]; first compound 0.3162 µM)	relative viability ([1]; first compound 1 µM)	relative viability (BI-2536 + Dasatinib; first compound 0.01 µM)	relative viability (BI-2536 + Dasatinib; first compound 0.03162 µM)	relative viability (BI-2536 + Dasatinib; first compound 0.1 µM)	relative viability (BI-2536 + Dasatinib; first compound 0.3162 µM)	relative viability (BI-2536 + Dasatinib; first compound 1 µM)	relative viability ([2]; first compound 0.01 µM)	relative viability ([2]; first compound 0.03162 µM)	relative viability ([2]; first compound 0.1 µM)	relative viability ([2]; first compound 0.3162 µM)	relative viability ([2]; first compound 1 µM)
NCI-H3122	0.11	0.0932	0.107	0.0899	0.0757	1	1.01	0.935	1.03	1.02	0.813	0.878	0.158	0.0979	0.104	0.361	0.431	0.471	0.424	0.438
PC-3 [JPC-3]	0.705	0.683	0.496	0.215	0.205	0.83	0.897	0.581	0.778	0.81	1.02	0.925	0.879	0.266	0.188	0.811	–	0.882	0.878	0.95
PC-14	0.116	0.171	0.111	0.107	0.108	0.809	0.849	0.892	0.839	1.08	0.269	–	0.0367	0.0318	0.0158	0.206	0.286	0.226	0.259	0.222
RERF-LC-KJ	1.28	0.614	0.26	0.306	0.303	1.11	1.11	1.07	0.916	1.08	0.746	0.574	0.234	0.189	0.217	0.783	0.762	0.82	0.617	0.699
SK-LU-1	0.216	0.2	0.167	0.174	0.169	0.931	1.15	0.829	1.23	1.42	0.176	0.143	0.108	0.113	0.099	0.626	0.63	0.64	0.582	0.615
SW 1573	0.123	0.117	0.152	0.122	0.0874	1.13	1.04	0.822	1.04	1.27	0.563	0.222	0.0892	0.0839	0.0938	0.508	0.579	0.51	0.649	0.505
